In patent US5266570A, “Piperidine derivatives, compositions and use” (Imperial Chemical Industries PLC, priority 1991, dated 1993):

What was measured:
[1] = biological target: T1, dopamine (DA) D-2 receptor (Rattus norvegicus, UniProt P61169); experiment: TEST A: [3H]-spiperone binding, dopamine (DA) D-2 receptor, rat striatal membranes; details: 0.5 nM [3H] spiperone, 40 nM ketanserin, pH 7.7, 37° C., 15 min, typical values, read-out: IC50 (drug concentration which produced a 50% displacement) for the displacement of [3H] spiperone
T1 construct: Specifically, rat striatal membranes were used; from tissue; host or cells: rat striatum (membranes)
T1 sequence (P61169 whole entry): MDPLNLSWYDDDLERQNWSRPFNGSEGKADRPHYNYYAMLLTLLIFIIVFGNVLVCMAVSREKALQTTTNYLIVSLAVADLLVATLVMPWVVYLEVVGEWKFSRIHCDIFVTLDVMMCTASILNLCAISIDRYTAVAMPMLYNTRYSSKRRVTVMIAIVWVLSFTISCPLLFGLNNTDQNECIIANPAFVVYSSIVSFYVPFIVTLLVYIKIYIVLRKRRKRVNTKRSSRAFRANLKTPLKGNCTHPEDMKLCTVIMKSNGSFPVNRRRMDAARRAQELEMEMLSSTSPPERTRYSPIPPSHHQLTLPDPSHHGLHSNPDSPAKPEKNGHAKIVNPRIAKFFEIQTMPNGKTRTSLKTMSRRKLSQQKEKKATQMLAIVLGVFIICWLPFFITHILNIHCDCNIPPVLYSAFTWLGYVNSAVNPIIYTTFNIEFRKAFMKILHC
Source text: (§1) The compounds of Formula I are antagonists of dopamine D-2 receptors, and as such are predicted to be useful as antipsychotic drugs. D-2 antagonism can be shown by standard tests such as antagonism of [^3 H]-spiperone binding (Test A), and/or antagonism of apomorphine-induced climbing and apomorphine-induced disruption of swimming (Test B).
The receptor binding assay used to measure affinities of various compounds for the dopamine (DA) D-2 receptor subtype was that described by Saller and Salama in J Pharmacol Exp Ther 236, page 714, 1986.
Specifically, rat striatal membranes were used. Tissue membranes were prepared and washed once in 50 volumes of the appropriate Tris HCl buffer. For the D-2 receptor binding assay, striatal membranes were suspended to a final concentration of 8 mg/ml in 50 mM Tris HCl with 40 nM ketanserin, pH 7.7. Nonspecific binding to D-2 receptors was measured in the presence of 1.0 μM (+)-butaclamol. IC50 s (drug concentration which produced a 50% displacement) for the displacement of 0.5 nM [^3 H] spiperone were determined using at least five concentrations of each drug in triplicate. One-half milliliter of membrane suspension was incubated with the compound of interest or vehicle or nonspecific drug, ligand and appropriate Tris HCl buffer. […] The amount of drug bound to the membranes was assessed using liquid scintillation counting techniques. […]

[2] = test system: apomorphine-induced climbing and apomorphine-induced disruption of swimming; experiment: TEST B: antagonism of apomorphine-induced climbing and apomorphine-induced disruption of swimming; assay type: in vivo, mouse (female Swiss-Webster mice); details: Mus musculus; mice, oral, 30 min before apomorphine HCl 1.25 mg/kg sc; typical values; read-out: minimum effective dose (decrease in climbing score accompanied by increase in swimming score)
Procedure: as §1
Female Swiss-Webster mice weighing approximately 20 g were deprived of food for approximately 24 h and then dosed orally with various doses of either the vehicle or test agent over a range of doses (N=20 mice per treatment group). Thirty minutes later they were dosed with apomorphine HCl at 1.25 mg/kg, sc, and placed into climbing cages. The climbing cages were 9 cm wide, 15 cm deep and 30 cm high. One wall had 27 horizontal rungs spaced 1 cm apart. Thirteen minutes after apomorphine each mouse was observed continuously for 1 min and the highest and lowest rung reached by its front paws was recorded. […] (The highest and lowest scores were 27 and 0, respectively.) Immediately after the 1-min climbing observation period each mouse was placed into a circular swimming tank for 2 min and the number of swims was counted. […] A "swim" was scored each time a mouse swam from one mark to the other. The mice were observed through overhead mirrors and the number of 180 degree swims was recorded for each mouse. […]

| Structure (SMILES) | IC50 [1] | minimal effective dose [2] |
| --- | --- | --- |
| CCOCC(=O)NC1CCN(C[C@@]23C[C@@H](c4ccccc42)c2ccc(Cl)cc23)CC1 [Example 1, N-(1-[(9S,10S)-(+)-2-Chloro-9,10-dihydro-9,10-methanoanthracen-9-ylmethyl]-4-piperidyl)-2-ethoxyacetamide] | 0.009 µM | 2.5 mg/kg |
| CCC(=O)NC1CCN(CC23CC(c4ccccc42)c2ccc(Cl)cc23)CC1 (stereo not shown) [Example 24, N-(1-[2-Chloro-9,10-dihydro-9,10-methanoanthracen-9-ylmethyl]-4-piperidyl)propionamide] | 0.146 µM | 40 mg/kg |
